Key:
white shrimp L. vannamei = conditions: in vivo
Toll-Like Receptor = conditions: RT q-PCR, treated vs non-treated shrimp; feed 5 mg/g
Experimental: (§1) Primer design is performed in the online application «primer3plus» (Untergasser, A., Nijveen, H., Rao, W., Bisseling, T., Geurts, R., Leunissen, J. A. M. 2007, Nucleic Acids Research, 35: 71-74) based in the following features: 18-24 nt length; GC content 35-65% product size 80-250 bp; and ≤2 GC clamp (Wang, X. and Seed, B., 2007). The primers are evaluated in the online application «Oligo Evaluator» Sigma Aldrich™ (St' Louis, Mo.) to check thermodynamic characteristics based in self-aligned primer and primer-dimer structures. The primers selected are ≤−2 Kcal/mol and evaluated using an in silico PCR software «Primer Digital» (Kalender et al., 2011). RNA extracts used for the microarray hybridizations are converted to cDNA using promega GoScript™ Reverse Transcription System (Promega Corporation, Madison, Wis., USA) and SsoFast™ EvaGreen® Supermix (Bio-Rad, Hercules, Calif., USA) for RT-qPCR.

SOD = conditions: RT q-PCR, treated vs non-treated shrimp; feed 5 mg/g
Experimental: as §1

[1] = commercial diet supplemented 5 mg/g, fed ad libitum up to 28 days
[2] = system: White Spot Syndrome Virus (WSSV); assay: Challenge of shrimp L. vannamei with White Spot Syndrome Virus, survival; format: in vivo; conditions: for survival rate: positive control 10%
Experimental: The virus is isolated from WSSV-infected adult L. vannamei shrimp obtained from commercial farms located in Sinaloa, Mexico in 2013. Virus stocks were purified from infected shrimp homogenates by improved differential centrifugation as described previously by Du et al, (Du, H. H., Fu, L. L., Xu, Y. X., Kil, Z. S., Xu. Z. R. 2007. Aquaculture, 262:532-534) and then stored at −80° C. For assays, the WSSV stock is serially diluted to prepare solutions containing various target copy numbers determined by competitive PCR.
A volume of 20 μL of different dilutions of the tissue homogenate (containing WSSV in 330 mM of NaCl) is injected intramuscularly in fourth or fifth abdominal segment of L. vannamei using an insulin needle. The mortality is recorded twice a day and dead shrimp are tested by PCR to highlight the presence of WSSV.
There are two control groups: • 1.
The shrimp mortality percentage is recorded daily.
Dead shrimp are recorded daily during 120 hours.

## C[N+](C)(C)CCOB1OB2OB(O1)OB1OB(O2)O1.[Cl-] [choline/pentaborate complex]
White shrimp L. vannamei
  toxicity (summary statement): not toxic
Toll-Like Receptor
  increase of expression of Toll-Like Receptor gene: more than 200 fold
SOD
  increase of expression of SOD gene: more than 200 fold
[1]
  increment in mean weight compared with control group: 20%
[2]; 5 mg/g in feed diets, standardized injection protocols
  impact of WSSV infection (summary statement): effective in reducing impact of WSSV infection
[2]; 1% WSSV suspension, 96 h post-challenge, 5 mg/g feed, positive control about 35%, p<0.05
  survival: 85%
[2]; 1% WSSV suspension, after 72 h, 5 mg/g feed, positive control about 65%
  survival: 95%
[2]; 3% WSSV suspension, 96 h post-challenge, 1 mg/g feed
  survival rate: ~40%
[2]; 3% WSSV suspension, 96 h post-challenge, 5 mg/g feed
  survival rate: ~40%
[2]; 3% WSSV suspension, after 48 hours, 5 mg/g feed, positive control about 80%
  survival: 95%
